Reference: patent US20260137697A1, “THIAZOLO[5,4-D]PYRIMIDINE COMPOUNDS, COMPOSITIONS COMPRISING THEM AND USES THEREOF” (University de Montreal, priority 2022, published 2026)
Read-outs that look alike come from different tables or passages of the source.

What was measured:
Assay type in all cases: cell-based, human
HCT116 cells = test: Proliferation inhibition, CellTiter-Glo, HCT116; conditions: Table D-1, HCT116 (KRAS G13D), 3 days, read-out: Prolif. (proliferation EC50)
Method: (§1) All cancer cell lines (A375, A101D, A2058, RKO, HT29 SK-MEL 30, IPC298, HepG2, HCT-116, Lovo, SW620, SW480, NCI-H358, NCI-H2122, Calu-6, NCIH2087, NCIH1755, NCIH1666 and Mewo) were obtained from ATCC and cultured in RPM1-1640 medium (Gibco) supplemented with 5% heat inactivated fetal bovine serum (FBS, Wisent) at 37° C. under 5% CO2. Cells were maintained in T175 flasks (Greiner). They were passaged by removing the culture medium, washing once in 10 mL of room temperature Phosphate Buffered Saline (PBS; Wisent) and incubating at 37° C. with 2 mL of 0.05% Trypsin (Thermo-Fisher). Trypsin was then inactivated by adding complete growth medium and the cells were then replated in a T175 culture dish at the appropriate dilution. All cell lines were routinely tested for mycoplasma contamination. Tissue type and mutational status of each cell line can be found in Table B.
(§2) CellTiter-Glo® viability analysis was conducted on cells plated in 100 μL of complete RPMI-1640 growth medium in 96-well flat-bottomed white opaque plates (Greiner or Croning) at a density indicated in Table E (for each CCL, number of cells plated per well of a 96-well plate to perform the CellTiter-Glo® cell viability assay). The cell density in cells/cm^2 would correspond to cell number divided by the area of one well of a 96-well plate (0.32 cm^2). […]
(§3) After 3 days of incubation, the growth media were removed by aspiration and 60 μL of diluted CellTiter-Glo® reagent (10 μL CellTiter-Glo® reagent+50 μL of PBS) was added to each well. […] Luminescence signals were then acquired on a Synergy Neo2 plate reader (Biotek).
(§4) The effect of each compound dilution on the proliferation of cancer cell lines was expressed in % inhibition and calculated as follows. […]
(§5) The ability of each compound to inhibit proliferation was expressed as a EC50 value obtained by plotting the effect values for each data point of a dilution series and fitting the obtained curves using a log(agonist) versus response—variable slope (four parameters) function using GraphPadPrism (V7.0) or Dotmatics Screening Ultra platform.

Calu6 cells = test: Proliferation inhibition, CellTiter-Glo, Calu-6; conditions: Table D-2, Calu6 (KRAS Q61K), 3 days, read-out: Prolif. (proliferation EC50)
Method: as §1, §2, §3, §4, §5

pERK, SW620 cells = test: Phospho-ERK inhibition, AlphaLISA p-ERK 1/2, SW620; conditions: Table D-2; for IC50: SW620 (KRAS-G12V); for pERK value in parentheses, % inhibition (Ymin): SW620, lowest point of IC50 curve
Method: as §1
(§6) (c) Measurement of Phospho-ERK Inhibition in Cultivated Human Cancer Cell Lines by the AlphaLISA® SureFire® Ultra™ p-ERK 1/2 (Thr2O2/Tyr204)
(§7) AlphaLISA® SureFire® Ultra™ p-ERK 1/2 (Thr202/Tyr204) analysis was conducted on cells plated in 100 μL of complete RPMI-1640 growth medium in 96-well flat-bottomed transparent dishes (Costar) at a density indicated in Table C. Cells were maintained overnight at 37° C. under 5% CO2 before treatment with compounds' dilution series for one hour. The cell density in cells/cm^2 corresponds to cell number divided by the area of one well of a 96-well plate (0.143 cm^2).
(§8) In a dilution series 100 μL/well of test substance dilution prepared in complete RPMI-1640 growth media was added to the cells. The dilution series is selected so that ten concentrations cover a range from 10 μM to 0.33 nM. If necessary, the initial concentration of 10 μM is increased to 100 μM or lowered to 1 μM (as in the case of A375 and H1666 cells, which are generally more sensitive to the compounds) and further dilution is carried out accordingly. The final concentration of DMSO in the assay is set at 0.5%.
(§9) After treatment, media was removed, and cells were lysed in 50 μL of 1× AlphaScreen Ultra Lysis Buffer (Perkin Elmer). The AlphaLISA® SureFire® Ultra™ p-ERK 1/2 (Thr202/Tyr204) (PerkinElmer) reactions were performed with 5 μL of cell lysate according to the manufacturer's specifications in 384-well proxyplates (Perkin Elmer) followed by overnight incubation of the reactions at room temperature in a humidified chamber. After completion of the reactions, the signals were recorded on an EnVision plate reader (Perkin Elmer) using built in AlphaLISA® settings.
(§10) The effect of each compound dilution on the pERK signal was expressed in % inhibition and calculated as follows. An internal 100% inhibition control (1 μM trametinib, cat. No. HY-10999; MedChem Express; CAS No. 871700-17-3) was included in each plate and used as a measure of pERK background. First, the value obtained for trametinib was subtracted from each data point. The average of DMSO (vehicle) controls (set as 0% inhibition) was established and used to calculate % inhibition:
as §5, with “pERK signal” for “proliferation”, “an IC50” for “a EC50”, “inhibition” for “effect”
(§11) When present, paradoxical pERK induction is inferred from the negative % inhibition values observed in the pERK IC50 curves of a compound.

NCIH2087 cells = test: Proliferation inhibition, CellTiter-Glo, NCIH2087; conditions: Table D-2, NCIH2087 (BRAF L597V; KRAS Q61K), 3 days, read-out: Prolif. (proliferation EC50)
Method: as §1, §2, §3, §4, §5

pERK, Mewo cells = test: Phospho-ERK inhibition, AlphaLISA p-ERK 1/2, Mewo; conditions: Table D-2; for IC50: Mewo (NF1 LOF); for pERK value in parentheses, % inhibition (Ymin): Mewo, lowest point of IC50 curve
Method: as §1, §6, §7, §8, §9, §10
as §5, with “pERK signal” for “proliferation”, “an IC50” for “a EC50”, “inhibition” for “effect”
as §11

With `Cc1ccc2c(Nc3cccc(Cl)c3F)nccc2c1NC(=O)c1csc2c(N)ncnc12` [Belvarafenib, reference compound] the EC50 (HCT116 cells; Homo sapiens, HCT-116, 72 h) was 0.3 to 3 µM, the EC50 (Calu6 cells; Homo sapiens, Calu-6, 72 h) was less than 0.3 µM and the IC50 (pERK, SW620 cells; Homo sapiens, SW-620) was 0.03 to 0.3 µM. The “pERK value in parentheses, % inhibition (Ymin)” value (“pERK value … % inhibition (Ymin)” below) (pERK, SW620 cells) was “(−151) %”, the EC50 (NCIH2087 cells; Homo sapiens, NCI-H2087, 72 h) was less than 0.3 µM and the IC50 (pERK, Mewo cells; Homo sapiens) was 0.03 to 0.3 µM. For the same compound, the “pERK value … % inhibition (Ymin)” value (pERK, Mewo cells) was “(−116) %”.

In the case of `Cc1c(F)cccc1S(=O)(=O)Nc1ccc(F)c(Nc2ncnc3sc(-n4cc(C(=O)N5C6CCC5CN(C)C6)c5ccccc54)nc23)c1F` [Example 44], the EC50 (HCT116 cells) is reported as less than 0.3 µM, the EC50 (Calu6 cells) is reported as less than 0.3 µM and the IC50 (pERK, SW620 cells) is reported as 0.03 to 0.3 µM. For the same compound, the “pERK value … % inhibition (Ymin)” value (pERK, SW620 cells) was “(3) %”, the EC50 (NCIH2087 cells) was less than 0.3 µM and the IC50 (pERK, Mewo cells) was less than 0.03 µM. The “pERK value … % inhibition (Ymin)” value (pERK, Mewo cells) was “(3) %”.

For `N#CC1(c2cccc3c2ncn3-c2nc3c(Nc4c(F)ccc(NS(=O)(=O)c5cccc(Cl)c5Cl)c4F)ncnc3s2)CC1` [Example 122], the EC50 (HCT116 cells) was less than 0.3 µM, the EC50 (Calu6 cells) was less than 0.3 µM and the IC50 (pERK, SW620 cells) was 0.03 to 0.3 µM. For the same compound, the “pERK value … % inhibition (Ymin)” value (pERK, SW620 cells) was “(−6) %”, the EC50 (NCIH2087 cells) was less than 0.3 µM and the IC50 (pERK, Mewo cells) was 0.03 to 0.3 µM. The “pERK value … % inhibition (Ymin)” value (pERK, Mewo cells) was “(2) %”.
